We go through one compound from patent US20260345649A1, “PHARMACEUTICAL COMPOSITION FOR DESTRUCTION OF TUMOR BLOOD VESSELS” (SAMSUNG MEDICAL FOUNDATION, priority 2022, published 2026).

The subject of one data set is patients. As to conditions: cited from earlier work.
The subject of another data set is VEGF. Kind of data set: VEGF immunohistochemical staining of gastric tumor tissue after local injection of 5-FU in nude mice. The class given is in vivo. The method, then: (§1) To observe changes in vascular tissue within gastric tumor masses after local injection of 5-FU, immunohistochemical staining for CD31 and VEGF was performed.
(§2) For the control group, gastric tumor tissue was implanted in the dorsal region of nude mice, and when the tumor reached a size of 1 cm×1 cm, it was excised and used. For the 5-FU injection group, 5 mg of 5-FU was injected at the base of the tumor when the implanted tumor reached a size of 1 cm×1 cm. […] The immunohistochemical staining method was as follows.
(§3) To reduce endogenous peroxidase activity present in blood cells within the tissue, the slides were treated at room temperature with 3% H2O2 in methanol for 15 minutes. […] The slides were washed twice with TBST (Tris-buffered saline with 0.1% Tween® 20 Detergent) for 3 minutes each, followed by incubation at room temperature for 15 minutes with Detection Kit Reagent 1 (HRP Polymer-anti-mouse/rabbit IgG). […] For counterstaining, Harris hematoxylin was applied.
(§4) For result analysis, the proportion of the area stained for CD31-positive blood vessels and VEGF-positive cancer cells relative to the total tissue area was calculated, and a comparison was made between the control group and the 5-FU locally injected group.

The subject of data set [1] is subcutaneous muscle layer. As to the kind of experiment: Pathological changes in the subcutaneous muscle layer after subcutaneous injection of 5-FU (H&E staining). The class given is in vivo, nude mice. Details: key to pathological change score (degeneration, necrosis, inflammation, fibrosis): 0: absent; 1: mild; 2: moderate; 3: severe. As to conditions: 5 mg pH 8.4 5-FU, after 24 hours. The method, then: To observe pathological changes in the surrounding tissue after injecting 5 mg of pH 8.4 5-FU near the tumor, the drug was locally administered to nude mice. After 24 hours, tissues, including muscle layers, were collected and subjected to H&E staining to examine degeneration, necrosis, inflammation, and fibrosis in the muscle layer. The extent of each pathological change was scored as follows: 0=absent, 1=mild, 2=moderate, 3=severe, and the results are shown in FIG. 10A and FIG. 10b. FIG. 10A presents observations at 40× magnification, while FIG. 10b presents observations at 100× magnification.

Data set [2] has as its system HUVECs. Kind of data set: MTS cell proliferation assay, 5-FU cytotoxicity in HUVECs at different pH. The class given is cell-based, human. The settings on record: FIG. 5. The method, then: To evaluate the cytotoxic effect of 5-fluorouracil (5-FU) in human umbilical vein endothelial cells (HUVECs) under different pH conditions, an MTS cell proliferation assay was performed.
Subsequently, the cells were cultured for an additional 24 hours in Dulbecco's Modified Eagle's Medium (DMEM) containing 5-FU at different pH conditions (pH 6.4, 7.4, 8.4, and 9.0). Following the incubation, the cells were washed twice with phosphate-buffered saline (PBS), after which 100 μL of fresh DMEM growth medium was added, followed by an additional 48-hour incubation. […] After an additional 2-hour incubation, the absorbance was measured at 490 nm using a microplate reader (Model 680, BIO-RAD; Spark, TECAN, CA, USA).
On the technique in general: Formazan colour is commonly taken as a measure of viable cells.

Another data set relates to CD31. As to the kind of experiment: CD31 immunohistochemical staining of gastric tumor tissue after local injection of 5-FU in nude mice. The class given is in vivo. The method, then: as §1, §2, §3, §4
Data set [3] deals with HUVECs. As to the kind of experiment: LDH release assay in HUVECs. As to conditions: 1 mM, 5 mM, and 10 mM 5-FU, time-dependent, P<0.05, FIG. 4. The class given is cell-based, human. The method, then:
It has been generally reported that an increase in the expression of thrombospondin-1 (TSP-1) and thrombospondin-2 (TSP-2) induces apoptosis in endothelial cells. To investigate whether the administration of 5-fluorouracil (5-FU) enhances apoptosis in endothelial cells, an LDH release assay was conducted in human umbilical vein endothelial cells (HUVECs). Cytotoxicity was assessed based on the amount of lactate dehydrogenase (LDH) released due to cell membrane damage. The released LDH was quantified using an LDH assay kit (EZ-LDH1000; DoGenBio, Seoul, Korea) according to the manufacturer's protocol.
HUVECs (5×10^4 cells/well) were seeded in a 96-well polystyrene plate and incubated at 37 °C for 24 hours. LDH substrate was added to each well, followed by an additional incubation at 37 °C for 10 minutes. The plate was centrifuged at 600 g for 5 minutes. A 10-μL aliquot of the supernatant was transferred from the culture plate wells to an analysis plate. Subsequently, 100 μL of LDH reaction mixture reagent was added to the supernatant in each well of the analysis plate. After a 30-minute reaction, absorbance was measured at 450 nm using a microplate reader (Model 680; Bio-Rad). The cytotoxicity of 5-FU on HUVECs was determined based on the amount of LDH released.
For orientation: LDH in the medium is a marker of cell lysis.

Data set [4] concerns human gastric cancer cells. As to the kind of experiment: Human gastric cancer cell xenograft in nude mice, alkaline 5-FU injected adjacent to tumor. The class given is in vivo, nude mice (Crj: BALB/c-nu/nu), human tumor cells. The settings on record: 5 mg 5-FU pH 8.4, three times at one-week intervals, 4 weeks, P<0.05, FIG. 8. The method, then: The animals used in the experiment were six male nude mice (Crj: BALB/c-nu/nu mice, male) aged five weeks and weighing approximately 30 grams, purchased from Orient. The mice were subjected to a one-week acclimation period in the laboratory before use. Each nude mouse was subcutaneously xenografted with 5×10^6 human gastric cancer cells suspended in 100 μL of PBS on the dorsal subcutaneous layer. The tumor size was periodically measured, and when it reached a diameter of 1 cm, the drug administration experiment was conducted.
The experimental animals were divided into two groups. One group served as the control group, receiving only physiological saline, while the other group was administered 5 mg of 5-FU at pH 8.4. The drug was injected 0.2 cc adjacent to the tumor three times at one-week intervals. After one month, the major and minor axes of the tumors growing on the dorsal epidermis were measured.

A further data set has as its system HUVEC. Kind of data set: 5-FU cytotoxicity on HUVEC according to D-glucose or L-glucose concentration (MTS). The class given is cell-based, human. The method, then: An MTS cell proliferation assay was conducted to evaluate the cytotoxic effect of 5-FU on HUVEC according to D-glucose concentration under different pH conditions.
The cells were then incubated for an additional 24 hours in DMEM medium containing various concentrations of glucose.
To assess the cytotoxic effect of L-glucose on HUVEC, the experiment was conducted in the same manner as described in Example 2, Section 3.
To assess the cytotoxic effect of D-glucose or L-glucose on HUVEC, the experiment was conducted in the same manner as described in Example 2, Section 3.

In the case of `O=c1[nH]cc(F)c(=O)[nH]1` [5-FU, 5-fluorouracil], in the data set on patients (due to phosphorylation in the gastrointestinal tract, damage to normal cells), the “myelosuppression and gastrointestinal toxicity” value is “frequent myelosuppression and gastrointestinal toxicity”. In addition, the “adverse effects on intravenous administration” value in the data set on patients (intravenous) is given as “associated with adverse effects such as thrombosis”. In the data set on patients (reported cases), the “incidence of severe and potentially life-threatening cardiotoxicity” value is listed as 1.5% to 18. Further, the “Immuno-positive area (%)” value amounted to 0.10% in the data set on VEGF (VEGF, proportion of total tissue area, 5 mg 5-FU, one week after injection, control group 0.38) and 0.54% in the data set on CD31 (CD31, proportion of total tissue area, 5 mg 5-FU, one week after injection, control group 0.87). Besides, in the data set with VEGF (compared to control group), the VEGF secretion levels result is given as “decreased”. In the data set on VEGF (compared to control group, FIG. 7), the VEGF stained area entry is given as “appeared smaller”. In data set [1], the “pathological change score (degeneration, necrosis, inflammation, fibrosis)” value was found to be 0. Further, in data set [1], the “pathological changes in the subcutaneous muscle layer at the injection site” value is given as “no pathological changes were observed”. In the data set with HUVECs [2], the “cytotoxicity under alkaline conditions compared to neutral or acidic 5-FU” value was “significantly greater toxicity”. For the same compound, the “cytotoxic effect according to pH” value in the data set with HUVECs [2] (pH 6.4, 7.4, 8.4, and 9.0, 24 hours) is on record as “increased as the alkalinity of the drug became stronger”. Also, the “distribution of necrotic tissue in tumor mass” value in the data set with CD31 (5 mg 5-FU, one week, compared to control group, FIG. 6) is listed as “the distribution of necrotic tissue increased”. Also, the “stained area of CD31 and VEGF” value with CD31 (CD31 and VEGF, compared to control group, Table 1) is given as “appeared smaller”. Further, in the data set on CD31 (compared to control group), the “vascular distribution within the tumor mass” value is recorded as “reduced”. The “stained area ratio of CD31” value in the data set on CD31 (compared to control group, FIG. 6) is “lower”. Moreover, in the data set with HUVECs [3], the “amount of released LDH” value is listed as “significantly increased”. In addition, the “tumor size compared to before injection” value in data set [4] is given as “significantly reduced”. The “cell viability upon addition of 5-FU” value is given as “further decreased cell viability” in the data set with HUVEC (5-FU added to L-glucose 5 mM and 25 mM, FIG. 14); “further decrease in cell viability” in the data set on HUVEC (5-FU under different pH conditions added to D-glucose 5 mM and 25 mM, FIG. 13).
